From ChEMBL document CHEMBL4130627, “Prodrugs of the Phosphoribosylated Forms of Hydroxypyrazinecarboxamide Pseudobase T-705 and Its De-Fluoro Analogue T-1105 as Potent Influenza Virus Inhibitors” (J Med Chem, 2018)
Activity calls are given as the source filed them. The rule behind the calls is not given here.

Legend:
Influenza A virus [1] = assay: microbe, parasite or virus in culture; conditions: MDCK, 72 h
Description: Antiviral activity against Influenza virus A/X-31 infected in MDCK cells assessed as reduction in viral replication at 3 days post infection by microscopic analysis

Influenza A virus [2] = assay type: functional, organism-based; conditions: Influenza A virus (A/X-31(H3N2)); MDCK; 12 to 50 uM
Influenza A virus [3] = assay type: functional, organism-based; conditions: Influenza A virus (A/X-31(H3N2)); MDCK; 250 uM
[4] = system: unidentified influenza virus; assay: Antiviral activity against Influenza virus infected in human A549 cells; assay type: functional
[5] = Cytotoxicity against MDCK cells assessed as reduction in cell viability after 3 days by formazan-based MTS assay; design: species or system Canis lupus familiaris; conditions: dog
Influenza B virus [6] = assay: microbe, parasite or virus in culture; conditions: Ned/537/05, MDCK, 72 h
Description: Antiviral activity against Influenza virus B/Ned/537/05 infected in MDCK cells assessed as reduction in viral replication at 3 days post infection by microscopic analysis

Influenza A virus [7] = assay type: functional, organism-based; conditions: Influenza A virus (A/X-31(H3N2)); MDCK; 25 uM
Influenza A virus [8] = assay: microbe, parasite or virus in culture; conditions: MDCK, 72 h; remark: listed apart in the source
Description: Antiviral activity against Influenza virus A/X-31 infected in MDCK cells assessed as reduction in viral replication at 3 days post infection by formazan-based MTS assay

Influenza A virus [9] = assay type: functional, organism-based; conditions: Influenza A virus (A/X-31(H3N2)); MDCK; 250 uM; remark: listed apart in the source
[10] = Cytotoxicity against MDCK cells assessed as change in cell morphology after 3 days by microscopic analysis; assay type: cell-based, Canis lupus familiaris; conditions: dog
MDCK [11] = assay: Prodrug activation in MDCK cells assessed as parent compound remaining at 714 uM after 19 hrs by RP-HPLC-UV analysis; assay type: cell-based, Canis lupus familiaris; conditions: dog
Influenza A virus [12] = assay type: functional, organism-based; conditions: Influenza A virus (A/X-31(H3N2)); MDCK; 25 uM; remark: listed apart in the source
MDCK [13] = assay: Prodrug activation in MDCK cells assessed as T-1105-RMP formation at 714 uM after 19 hrs by RP-HPLC-UV analysis; assay type: cell-based, Canis lupus familiaris; conditions: dog
[14] = Cytotoxicity against HGPRT deficient 6-thioguanine-resistant MDCK cells assessed as change in cell morphology after 3 days by microscopic analysis; assay type: cell-based, Canis lupus familiaris; conditions: dog
Influenza A virus [15] = assay type: functional, organism-based; conditions: Influenza A virus (A/X-31(H3N2)); MDCK; 25 uM; remark: listed apart in the source
MDCK [16] = assay type: cell-based, Canis lupus familiaris; conditions: dog, 714 µM
Influenza A virus [17] = assay type: functional, organism-based; conditions: Influenza A virus (A/X-31(H3N2)); MDCK; 12 to 50 uM; remark: listed apart in the source
Influenza A virus [18] = assay type: functional, organism-based; conditions: Influenza A virus (A/X-31(H3N2)); MDCK; 25 uM; remark: listed apart in the source
Influenza B virus [19] = assay: microbe, parasite or virus in culture; conditions: Ned/537/05, MDCK, 72 h; remark: listed apart in the source
Description: Antiviral activity against Influenza virus B/Ned/537/05 infected in MDCK cells assessed as reduction in viral replication at 3 days post infection by formazan-based MTS assay

[20] = molecular target: Membrane-associated guanylate kinase, WW and PDZ domain-containing protein 1 (Homo sapiens) (UniProt Q96QZ7); assay: Inhibition of human recombinant guanylate kinase 1 mediated […] conversion at 25 to 400 uM preincubated for 10 mins followed by enzyme addition measured up to 60 mins by UV absorbance method
[21] = Drug metabolism in MDCK cells assessed as T-1105-RTP formation at 465 uM during 15 hrs by RP-HPLC-UV analysis; assay type: ADME, cell-based, Canis lupus familiaris; conditions: dog
[22] = Drug metabolism in MDCK cells assessed as T-1105-RDP formation at 465 uM during 15 hrs by RP-HPLC-UV analysis; assay type: ADME, cell-based, Canis lupus familiaris; conditions: dog

Chain of Membrane-associated guanylate kinase, WW and PDZ domain-containing protein 1 (Homo sapiens) (Q96QZ7 whole entry, the tested form may be a part): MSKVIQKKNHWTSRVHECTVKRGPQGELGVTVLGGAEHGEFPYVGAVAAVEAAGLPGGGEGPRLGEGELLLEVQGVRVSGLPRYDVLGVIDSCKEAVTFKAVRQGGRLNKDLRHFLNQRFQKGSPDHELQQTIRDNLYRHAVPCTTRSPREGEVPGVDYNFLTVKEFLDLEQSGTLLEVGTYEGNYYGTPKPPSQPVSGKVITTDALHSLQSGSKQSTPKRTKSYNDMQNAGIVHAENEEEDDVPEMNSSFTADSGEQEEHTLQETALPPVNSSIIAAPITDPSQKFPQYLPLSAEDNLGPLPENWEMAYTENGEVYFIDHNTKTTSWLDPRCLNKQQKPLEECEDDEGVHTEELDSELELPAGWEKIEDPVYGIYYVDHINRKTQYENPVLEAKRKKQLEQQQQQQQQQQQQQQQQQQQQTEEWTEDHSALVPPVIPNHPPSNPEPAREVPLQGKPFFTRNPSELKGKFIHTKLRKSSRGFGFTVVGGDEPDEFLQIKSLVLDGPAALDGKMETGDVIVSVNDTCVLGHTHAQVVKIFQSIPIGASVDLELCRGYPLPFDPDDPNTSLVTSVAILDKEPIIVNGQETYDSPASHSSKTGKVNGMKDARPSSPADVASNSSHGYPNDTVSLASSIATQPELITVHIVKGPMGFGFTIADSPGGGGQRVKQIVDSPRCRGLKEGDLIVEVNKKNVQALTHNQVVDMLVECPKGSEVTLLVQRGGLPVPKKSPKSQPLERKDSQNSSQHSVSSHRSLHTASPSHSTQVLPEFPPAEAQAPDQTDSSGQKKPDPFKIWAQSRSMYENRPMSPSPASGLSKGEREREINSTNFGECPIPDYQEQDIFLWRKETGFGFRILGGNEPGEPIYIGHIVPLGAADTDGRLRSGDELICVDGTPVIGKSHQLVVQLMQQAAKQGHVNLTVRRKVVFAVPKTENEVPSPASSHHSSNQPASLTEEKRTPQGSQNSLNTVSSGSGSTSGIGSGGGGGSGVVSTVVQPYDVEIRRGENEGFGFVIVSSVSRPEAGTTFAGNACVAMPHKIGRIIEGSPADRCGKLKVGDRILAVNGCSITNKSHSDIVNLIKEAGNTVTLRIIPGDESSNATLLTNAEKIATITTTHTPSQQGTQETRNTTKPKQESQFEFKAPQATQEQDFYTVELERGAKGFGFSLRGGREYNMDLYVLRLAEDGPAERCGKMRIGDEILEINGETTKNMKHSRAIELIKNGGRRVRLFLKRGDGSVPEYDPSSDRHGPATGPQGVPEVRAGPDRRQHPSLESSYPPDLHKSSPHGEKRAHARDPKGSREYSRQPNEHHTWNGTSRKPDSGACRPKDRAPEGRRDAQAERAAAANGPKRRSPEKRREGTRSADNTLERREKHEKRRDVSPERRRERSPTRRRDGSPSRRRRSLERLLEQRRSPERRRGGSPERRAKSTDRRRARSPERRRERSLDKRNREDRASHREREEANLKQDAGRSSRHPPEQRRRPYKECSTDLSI

With `NC(=O)c1nccnc1O` the EC50 (Influenza A virus [1]) was 6.4 µM, the inhibition (Influenza A virus [2]) was “Active” and the inhibition (Influenza A virus [3]) was “Active”. It also gave an EC99 [4] of 134 µM, a CC50 at 72 h [5] greater than 250 µM and an EC50 (Influenza B virus [6]) of 2.8 µM. The inhibition (Influenza A virus [7]) was “inactive”, the EC50 (Influenza A virus [8]) was 5.4 µM and the inhibition (Influenza A virus [9]) was “Active”. The MCC at 72 h [10] was greater than 250 µM, the Stability (MDCK [11]) was 10% and the inhibition (Influenza A virus [12]) was “inactive”. For the same compound, the Drug metabolism (MDCK [13]) was “Metabolite_Detected”, the MCC at 72 h [14] was greater than 250 µM and the inhibition (Influenza A virus [15]) was “Active”. For the same compound, the Drug metabolism (MDCK [16]) was “Metabolite_Notdetected”, the inhibition (Influenza A virus [17]) was “Active” and the inhibition (Influenza A virus [18]) was “Active”. For the same compound, the EC50 (Influenza B virus [19]) was 2.1 µM.

With `NC(=O)c1nccn([C@@H]2O[C@H](COP(=O)(O)O)[C@@H](O)[C@H]2O)c1=O` the inhibition [20] was “inactive”, the Drug metabolism [21] was “Metabolite_Notdetected” and the Drug metabolism [22] was “Metabolite_Notdetected”.
